Test results reported in ChEMBL document CHEMBL1129526, “Angular furoquinolinones, psoralen analogs: novel antiproliferative agents for skin diseases. Synthesis, biological activity, mechanism of action, and computer-aided studies” (J Med Chem, 1996).
pIC50: −log10 of the molar value. Values after ≈ are worked out from the molar mass of the structure shown.

What was measured:
Ehrlich [1] = experiment: Compound was tested for the inhibition of DNA synthesis in Ehrlich cells by incubation in the dark relative to furoquinolinone; assay type: functional, Mus musculus
Ehrlich [2] = experiment: Compound was tested for the inhibition of RNA synthesis in Ehrlich cells by UV -A Irradiation relative to furoquinolinone; assay type: functional, Mus musculus
Ehrlich [3] = experiment: Compound was tested for the inhibition of RNA synthesis in Ehrlich cells by incubation in the dark relative to furoquinolinone; assay type: functional, Mus musculus
Ehrlich [4] = experiment: Compound was tested for the inhibition of DNA synthesis in Ehrlich cells by incubation in the dark.; assay type: functional; conditions: Mus musculus, read-out: ID50 (the source's name)
Ehrlich [5] = experiment: Compound was tested for the inhibition of RNA synthesis in Ehrlich cells by incubation in the dark.; assay type: functional; conditions: Mus musculus, read-out: ID50 (the source's name)
Ehrlich [6] = experiment: Compound was tested for the inhibition of DNA synthesis in Ehrlich cells by UV -A Irradiation relative to furoquinolinone; assay type: functional, Mus musculus
Ehrlich [7] = experiment: Compound was tested for the inhibition of DNA synthesis in Ehrlich cells by UV -A Irradiation; assay type: functional, Mus musculus
Ehrlich [8] = experiment: Compound was tested for the inhibition of RNA synthesis in Ehrlich cells by UV -A Irradiation; assay type: functional, Mus musculus
[9] = Surviving fraction was evaluated at concentration 4 uM in T2 phage; assay type: functional
Bos taurus = species on record: Bos taurus; experiment: Association constant of binding of compound with calf thymus DNA was determined by using equilibrium dialysis.; conditions: cattle
[10] = Solubility of compound in water; assay type: physicochemical; conditions: for solubility: water, read-out: S
[11] = Surviving fraction was evaluated at concentration 2 uM in T2 phage; assay type: functional
[12] = Partition Coefficient in n-octanol / water medium; assay type: physicochemical

Row | SMILES | Relative activity (Ehrlich [1]) | Relative activity (Ehrlich [2]) | Relative activity (Ehrlich [3]) | pIC50 (Ehrlich [4]) | pIC50 (Ehrlich [5]) | Relative activity (Ehrlich [6]) | Du (Ehrlich [7]) | Du (Ehrlich [8]) | Surviving fraction [9] | K (Bos taurus) [M⁻¹] | S ([10]; buffer) [mg/mL] | Surviving fraction [11] | Partition coefficient [12] | solubility [10] [µg/mL]
1 | Cc1oc2c(C)cc3c(C)cc(=O)[nH]c3c2c1C | 0.0926 | 582 | 0.256 | 4.60 | 5.28 | 102.6 | 1.19 | 1.048 | 0.7 |  |  |  |  | 
2 | COc1c2occc2cc2ccc(=O)oc12 [METHOXSALEN] |  | 1 |  |  |  | 1 | 0.0116 | 0.0018 |  | 736 | 23 | 0.8 |  | 
3 | Cc1cc2c(o1)c(C)cc1c(C)cc(=O)oc12 |  | 16.83 |  |  |  | 4.14 | 0.0481 | 0.0303 |  | 10100 |  | 0.6 | 1897 | 1460 (≈ 6.4 mM)
4 | Cc1cc2c(o1)c(C)cc1c(C)cc(=O)n(C)c12 | 1 | 461 | 1 | 5.63 | 5.87 | 77.6 | 0.9 | 0.803 |  | 11700 |  | 0.69 | 163.5 | 4700 (≈ 19.5 mM)
